Legend:
[1] = test system: L-02 cells; assay: Cell growth inhibition assay (CCK-8); type: cell-based, human; conditions: single compounds; for IC50 (cell viability): L-02, 24 h exposure; for IC50: Homo sapiens, L02, L-02, 24 h exposure, read-out: IC50 (cell viability)
[2] = test system: L-02 cells; assay: Intracellular accumulation in L-02 cells by LC–MS/MS; type: in vitro ADME, human; conditions: for intracellular uptake in the JLZS group compared with the RC group: L-02, JLZS 6.5 mg/mL vs RC 3.25 mg/mL; for intracellular uptake in the JLZS group compared with the RC group / Intracellular concentration: n = 6; for Intracellular concentration: L-02, JLZS extracts 6.5 mg/mL
[3] = Stability of analytes in cell lysates (LC–MS/MS method validation); type: physicochemical; conditions: n=3; for Post-preparation stability RE%: 4 ℃, 24 h at autosampler; for Short-term stability RE%: 12 h at room temperature; for Long-term stability RE%: -80℃ for a month; for Freeze-thaw stability RE%: three freeze-thaw
Method: The stability of seven analytes including short-term stability (12 h at room temperature), post-preparation stability at 4 ℃ (24 h at autosampler), freeze-thaw stability (three freeze-thaw stability) and long-term stability (-80℃ for a month) was tested by analyzing three replicates at low and high QC levels during various sample storage and handling process.

[4] = test system: L-02 cells; assay: Intracellular identification of L-02 cell-uptake components by LC–MS/MS; type: in vitro ADME, human; conditions: L-02 exposed to JLZS-containing medium 6.5 mg/mL for 2 h
Method: The powder of 25 g FT and 25 g RC was evenly blended and then refluxed twice with six-fold 50% ethanol (1: 6, w/v) for 1 h; the collected filtrate was evaporated to dryness and further dissolved in DMSO, after filtering using the 0.22-µm cellulose acetate membrane. JLZS-containing medium (6.5 mg/mL) was freshly prepared by diluting the filtrate with RPMI-1640. Likewise, RC-containing medium was freshly prepared in the same method independently.
L-02 cells were seeded on 9-cm-diameter cell culture plates; after ∼80% confluent, the cultured cells were incubated with 6.5 mg/mL JLZS-containing medium. After 2-h exposure, L-02 cells were quickly washed free of culture medium with cold PBS (−) twice and harvested with 1 mL of 0.25% trypsin-EDTA for cell isolation. The cell suspension (∼5 × 10^6 cells) was spun down, and the cells were further washed twice in cold PBS (−). Then, 200 µL of methanol was used to lyse the collected cells with vortex mixing for 1 min. The cell lysates were centrifuged at 12,000 rpm for 4 min, and 10 μL of the centrifugal supernatant was injected into the LC–MS/MS system for identified analysis.
The LC–MS/MS system consisted of a Thermo TSQ Quantum Ultra triple-quadrupole mass spectrometer equipped with an electrospray ionization source (San Jose, CA, United States). LCquan quantitation software (version 2.5.6, Thermo Fisher Scientific, Waltham, MA, USA) was used to control the LC–MS/MS system for data acquisition and analysis. Analytes and IS separation were conducted using a Waters XTerra® MS C18 column (3.0 mm × 50 mm, 5 µm) maintained at 20 °C. By injecting 5 µL samples with a flow rate of 0.2 mL/min, chromatographic separation was achieved using a mobile phase of 0.1% formic acid–water (A) and methanol (B) via gradient elution, 0.0–2.0 min, 35%–50% B; 2.0–2.1 min, 50%–55% B; 2.1–2.5 min, 55%–60% B; 2.5–14.0 min, 60% B. The analytes and IS were detected in the ESI source by polarity switching from positive for 0.0–8.0 min to negative-ion modes for 8.5–14.0 min in a single run with multiple reaction monitoring (MRM).

[5] = design: method as in Gu et al., 2021; conditions: pharmacokinetic level, JLZS vs single herb; ref Gu et al., 2021; cited from earlier work

SMILES	IC50 (cell viability) [1]	Intracellular concentration ([2]; time 0.25 h)	Intracellular concentration ([2]; time 0.5 h)	Intracellular concentration ([2]; time 1 h)	Intracellular concentration ([2]; time 1.5 h)	Intracellular concentration ([2]; time 2 h)	Intracellular concentration ([2]; time 3 h)	Intracellular concentration ([2]; time 5 h)	Intracellular concentration ([2]; time 8 h)	Post-preparation stability RE% ([3]; high QC level)	Post-preparation stability RE% ([3]; low QC level)	Short-term stability RE% ([3]; high QC level)	Short-term stability RE% ([3]; low QC level)	Long-term stability RE% ([3]; high QC level)	Long-term stability RE% ([3]; low QC level)	Freeze-thaw stability RE% ([3]; high QC level)	Freeze-thaw stability RE% ([3]; low QC level)	detection in cell lysates [4]	elimination in the JLZS group compared with the single-herb group [5]	other results
COc1ccc2c(c1OC)CN(C)CCc1cc3c(cc1C(=O)C2)OCO3 [ALL, allocryptopine]	not detected IC50 values within the set concentration range	–	–	–	–	–	–	–	–	–	–	–	–	–	–	–	–	–	–	–
COc1ccc2cc3[n+](cc2c1OC)CCc1cc2c(cc1-3)OCO2 [BER, berberine]	–	3.2 ± 0.5 ng/mL	3.7 ± 0.3 ng/mL	5.5 ± 1.3 ng/mL	7.2 ± 2.5 ng/mL	8.3 ± 4.0 ng/mL	10.1 ± 1.7 ng/mL	12.3 ± 2.5 ng/mL	15.6 ± 4.9 ng/mL	3.1%	1.8%	2.5%	5.6%	1.2%	1.8%	6.9%	5.6%	found in the cell lysates	–	intracellular uptake in the JLZS group compared with the RC group [2]: decreased significantly; IC50 [1]: 41.2 µg/mL
c1c2c(cc3c1OCO3)-c1cc3ccc4c(c3c[n+]1CC2)OCO4 [COP, coptisine]	–	38.3 ± 4.9 ng/mL	44.0 ± 11.4 ng/mL	67.5 ± 7.7 ng/mL	84.4 ± 21.2 ng/mL	98.1 ± 34.8 ng/mL	134.8 ± 24.4 ng/mL	197.6 ± 45.9 ng/mL	261.8 ± 60.2 ng/mL	6.8%	-0.6%	6.2%	5.6%	6.6%	4.0%	5.0%	0.7%	found in the cell lysates	–	intracellular uptake in the JLZS group compared with the RC group [2]: decreased significantly; dose-normalized intracellular accumulation (ranking) ([2]; ratio of highest intracellular accumulation versus content in JLZS extracts, L-02): the highest; IC50 [1]: 14 µg/mL
COc1cc2c(cc1OC)[C@H]1[C@@H](C)c3ccc(OC)c(OC)c3CN1CC2 [COR, corydaline]	not detected IC50 values within the set concentration range	–	–	–	–	–	–	–	–	–	–	–	–	–	–	–	–	–	decreased significantly	–
COc1cc2c(cc1OC)-c1c(C)c3ccc(OC)c(OC)c3c[n+]1CC2 [DHC, dehydrocorydaline]	not detected IC50 values within the set concentration range	15.2 ± 2.9 ng/mL	26.1 ± 3.0 ng/mL	53.1 ± 4.0 ng/mL	71.9 ± 5.5 ng/mL	74.8 ± 6.2 ng/mL	82.0 ± 7.5 ng/mL	122.0 ± 8.7 ng/mL	98.2 ± 9.6 ng/mL	6.6%	-0.2%	8.8%	-2.4%	1.3%	2.3%	0.4%	-0.6%	found in the cell lysates	decreased significantly	–
COc1cc2c(cc1O)CC[n+]1cc3c(OC)c(OC)ccc3cc1-2 [JAT, jatrorrhizine]	not detected IC50 values within the set concentration range	13.4 ± 0.2 ng/mL	13.8 ± 0.8 ng/mL	14.9 ± 0.8 ng/mL	15.8 ± 1.8 ng/mL	16.3 ± 1.9 ng/mL	19.6 ± 1.0 ng/mL	21.2 ± 3.5 ng/mL	26.2 ± 6.0 ng/mL	4.7%	-0.2%	8.0%	5.3%	4.0%	1.9%	8.0%	2.9%	found in the cell lysates	–	–
COc1cc2c(cc1OC)-c1cc3ccc(OC)c(OC)c3c[n+]1CC2 [PAL, palmatine]	not detected IC50 values within the set concentration range	11.6 ± 1.8 ng/mL	15.6 ± 2.7 ng/mL	29.6 ± 7.9 ng/mL	40.2 ± 10.1 ng/mL	49.4 ± 19.9 ng/mL	65.7 ± 12.4 ng/mL	96.9 ± 10.7 ng/mL	99.5 ± 24.3 ng/mL	6.8%	-1.3%	2.5%	6.5%	0.0%	6.4%	6.5%	-3.5%	found in the cell lysates	decreased significantly	–
CN1CCc2cc3c(cc2C(=O)Cc2ccc4c(c2C1)OCO4)OCO3 [PRO, protopine]	not detected IC50 values within the set concentration range	–	–	–	–	–	–	–	–	–	–	–	–	–	–	–	–	–	–	–
C[C@@H]1O[C@@H](OC[C@H]2O[C@@H](Oc3c(-c4ccc(O)c(O)c4)oc4cc(O)cc(O)c4c3=O)[C@H](O)[C@@H](O)[C@@H]2O)[C@H](O)[C@H](O)[C@H]1O [RUT, rutin]	not detected IC50 values within the set concentration range	–	–	–	–	–	–	–	–	–	–	–	–	–	–	–	–	–	–	–
COc1ccc2c(c1OC)CN1CCc3cc4c(cc3C1C2)OCO4 (stereo not drawn) [THB, tetrahydroberberine]	not detected IC50 values within the set concentration range	–	–	–	–	–	–	–	–	–	–	–	–	–	–	–	–	–	decreased significantly	–
c1cc2c(c3c1CC1c4cc5c(cc4CCN1C3)OCO5)OCO2 (stereo not drawn) [THC, tetrahydrocoptisine]	not detected IC50 values within the set concentration range	15.8 ± 3.0 ng/mL	13.3 ± 0.5 ng/mL	15.0 ± 2.7 ng/mL	17.7 ± 3.6 ng/mL	20.3 ± 5.4 ng/mL	15.8 ± 2.9 ng/mL	15.1 ± 1.4 ng/mL	13.3 ± 1.8 ng/mL	-0.9%	-0.6%	4.6%	3.4%	1.2%	5.3%	-1.4%	-2.5%	found in the cell lysates	decreased significantly	–
COc1cc2c(cc1OC)[C@@H]1Cc3ccc(OC)c(OC)c3CN1CC2 [THP, tetrahydropalmatine]	not detected IC50 values within the set concentration range	–	–	–	–	–	–	–	–	–	–	–	–	–	–	–	–	–	decreased significantly	–
